From PubChem BioAssay (NCI)
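In this assay, cells in 96-well plates receive the compound at five concentrations for 48 hours. Endpoints are linearly interpolated between the surrounding concentrations. Abbreviation: GI50, concentration required for 50% inhibition of growth. Definition used: TGI = concentration required for complete inhibition of growth.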

Columns and labels:
Test in all cases: growth of human tumour cells (NCI), 48 h
[1] = system: NCI-H460 lung
[2] = system: NCI-H23 lung
[3] = system: MCF7 breast
[4] = system: NCI/ADR-RES ovarian
[5] = system: OVCAR-8 ovarian
[6] = system: COLO 205 colon
[7] = system: HL-60(TB) leukemia
[8] = system: 786-0 renal
[9] = system: OVCAR-4 ovarian
[10] = system: HT29 colon

O=C(Nc1ccc2c(c1)OCO2)C(=O)c1c[nH]c2cc(F)ccc12
GI50 [1]: 3.26 µM | TGI [1]: > 100 µM | GI50 [2]: 13.9 µM | TGI [2]: 55.4 µM | GI50 [3]: 6.91 µM | TGI [3]: > 100 µM | GI50 [4]: 1.47 µM | TGI [4]: 22.9 µM | GI50 [5]: 3.89 µM | TGI [5]: 23.6 µM | GI50 [6]: 13.5 µM | TGI [6]: > 100 µM | GI50 [7]: 4.51 µM | TGI [7]: > 100 µM | GI50 [8]: 4.39 µM | TGI [8]: 23 µM | GI50 [9]: 1.9 µM | TGI [9]: > 100 µM | GI50 [10]: 8.04 µM | TGI [10]: > 100 µM

CC(C)(C)c1ccc(O)c(CN(Cc2cc(C(C)(C)C)ccc2O)C2CCCCC2)c1
TGI [1]: 31.5 µM | TGI [2]: 48.7 µM | TGI [3]: 35.5 µM | TGI [4]: 42.1 µM | TGI [5]: 42 µM | TGI [6]: 6.81 µM | GI50 [7]: 13.9 µM | TGI [7]: 33.3 µM | TGI [8]: 29.8 µM | TGI [9]: 50.3 µM | TGI [10]: 37.1 µM

COc1ccc(/C=C2\CC(C)CC3C2=NN(c2ccccc2)C3c2ccc(OC)c(OC)c2)cc1OC (stereo not given)
GI50 [1]: 3.09 µM | TGI [1]: 12.4 µM | GI50 [2]: 4.49 µM | TGI [2]: 27.2 µM | GI50 [3]: 3.23 µM | TGI [3]: 42.6 µM | GI50 [4]: 2.71 µM | TGI [4]: 9.51 µM | GI50 [5]: 6.78 µM | TGI [5]: > 100 µM | GI50 [6]: 4.67 µM | TGI [6]: > 100 µM | GI50 [7]: 2.76 µM | TGI [7]: 8.7 µM | GI50 [8]: 5.24 µM | TGI [8]: 37.3 µM | GI50 [9]: 3.65 µM | TGI [9]: > 100 µM | GI50 [10]: 3.18 µM | TGI [10]: 16.1 µM

CC[C@@H](C)Nc1cc(C(=O)NC2CC3CCC(C2)N3c2ccc(C(=O)C3CC3)cn2)c(C)cc1C(N)=O (stereo not given in full)
GI50 [1]: 0.0299 µM | TGI [1]: > 54.2 µM | GI50 [2]: 0.0589 µM | TGI [2]: > 100 µM | GI50 [3]: < 0.0172 µM | TGI [3]: > 59.6 µM | GI50 [4]: 1.06 µM | TGI [4]: > 100 µM | GI50 [5]: 0.047 µM | TGI [5]: > 100 µM | GI50 [6]: 0.0182 µM | TGI [6]: 11.6 µM | GI50 [7]: 0.0329 µM | TGI [7]: 88.9 µM | GI50 [8]: 0.152 µM | TGI [8]: > 100 µM | GI50 [9]: 1.31 µM | TGI [9]: > 100 µM | GI50 [10]: 0.0111 µM | TGI [10]: 15.9 µM

Cc1cc(NNC(=O)c2ccccc2O)nc(Nc2nc3ccccc3o2)n1
GI50 [1]: 0.422 µM | TGI [1]: 6.77 µM | GI50 [2]: 3.99 µM | TGI [2]: 37.8 µM | GI50 [3]: 1.88 µM | TGI [3]: 20.7 µM | GI50 [4]: 1.3 µM | TGI [4]: 7 µM | GI50 [5]: 1.9 µM | TGI [5]: 12.8 µM | GI50 [6]: 2.75 µM | TGI [6]: 15.4 µM | GI50 [7]: 1.13 µM | TGI [7]: 6.99 µM | GI50 [8]: 1.8 µM | TGI [8]: 7.98 µM | GI50 [9]: 0.79 µM | TGI [9]: 7.06 µM | GI50 [10]: 3.31 µM | TGI [10]: 15.4 µM

Cc1cn2c(/C=C3/C(=O)Nc4ccc(F)cc43)c(C)nc2s1
GI50 [1]: 2.4 µM | TGI [1]: > 50 µM | GI50 [2]: 7.85 µM | TGI [2]: > 50 µM | GI50 [3]: 1.92 µM | TGI [3]: > 50 µM | GI50 [4]: 1.7 µM | TGI [4]: 7.26 µM | GI50 [5]: 10.4 µM | TGI [5]: > 50 µM | GI50 [6]: 1.91 µM | TGI [6]: > 50 µM | GI50 [7]: 1.98 µM | TGI [7]: 8.15 µM | GI50 [8]: 14.4 µM | TGI [8]: > 50 µM | GI50 [9]: 12.6 µM | TGI [9]: > 50 µM | GI50 [10]: 1.68 µM | TGI [10]: 14.9 µM

C=C1NC(=O)C(CC(C(=O)C(=O)Nc2c(C)cccc2C(C)(C)C)C(=O)c2ccc3ccccc3c2)C(=O)N1 (stereo not given)
TGI [1]: > 100 µM | TGI [2]: > 100 µM | TGI [3]: > 100 µM | TGI [4]: > 100 µM | TGI [5]: > 100 µM | TGI [6]: > 100 µM | TGI [7]: > 100 µM | TGI [8]: > 100 µM | TGI [9]: > 100 µM | TGI [10]: > 100 µM

CCOC(=O)c1cc(-c2ccc(OC)c(OC)c2)[nH]c1N/N=C/c1c(Cl)cccc1Cl
GI50 [1]: 1.35 µM | TGI [1]: > 35.9 µM | GI50 [2]: 2.97 µM | TGI [2]: 14 µM | GI50 [3]: 0.415 µM | TGI [3]: 17.8 µM | GI50 [4]: 1.15 µM | TGI [4]: 4.53 µM | GI50 [5]: 3.69 µM | TGI [5]: > 100 µM | GI50 [6]: 2.9 µM | TGI [6]: > 100 µM | GI50 [7]: 1.86 µM | TGI [7]: 6.15 µM | GI50 [8]: 2.77 µM | TGI [8]: 12.3 µM | GI50 [9]: 4.46 µM | TGI [9]: > 62.7 µM | GI50 [10]: 0.913 µM | TGI [10]: 6.28 µM

O=C(NNC(=S)Nc1ccccc1)c1ccccn1
GI50 [1]: 1.06 µM | TGI [1]: > 100 µM | GI50 [2]: 6.95 µM | TGI [2]: > 100 µM | GI50 [3]: 3.14 µM | TGI [3]: > 100 µM | GI50 [4]: 2.84 µM | TGI [4]: > 100 µM | GI50 [5]: 2.69 µM | TGI [5]: > 100 µM | GI50 [6]: 4.05 µM | TGI [6]: > 100 µM | GI50 [7]: 2.58 µM | TGI [7]: 7.85 µM | GI50 [8]: 2.81 µM | TGI [8]: > 100 µM | GI50 [9]: 1.46 µM | TGI [9]: > 100 µM | GI50 [10]: 4.17 µM | TGI [10]: > 100 µM

CC(CCCC1SCC2NC(=O)NC21)C(=O)O (stereo not given)
TGI [1]: > 100 µM | TGI [2]: > 100 µM | TGI [3]: > 100 µM | TGI [4]: > 100 µM | TGI [5]: > 100 µM | TGI [6]: > 100 µM | TGI [7]: > 100 µM | TGI [8]: > 100 µM | TGI [9]: > 100 µM | TGI [10]: > 100 µM

CC(=O)NC(CCCCN(Cc1ccccc1)C(=O)N(CCCl)N=O)C(=O)NCc1ccccc1 (stereo not given)
TGI [1]: 42.9 µM | TGI [2]: 50.3 µM | TGI [3]: > 100 µM | TGI [4]: 34.3 µM | TGI [5]: 43.2 µM | TGI [6]: 67.2 µM | TGI [7]: 65.4 µM | TGI [8]: 24.9 µM | TGI [9]: > 100 µM | TGI [10]: > 72.4 µM

N#Cc1c(N)nc(N2CCSCC2)c(C#N)c1-c1ccc(O)cc1
GI50 [1]: 13.4 µM | TGI [1]: 29.5 µM | GI50 [2]: 17.4 µM | TGI [2]: 36 µM | GI50 [3]: 14.1 µM | TGI [3]: 40.2 µM | GI50 [4]: 20.6 µM | TGI [4]: 67.1 µM | GI50 [5]: 33.6 µM | TGI [5]: > 100 µM | GI50 [6]: 19.8 µM | TGI [6]: 47.1 µM | GI50 [7]: 17 µM | TGI [7]: 53.1 µM | GI50 [8]: 13.5 µM | TGI [8]: 30.4 µM | GI50 [9]: 18 µM | TGI [9]: 67.6 µM | GI50 [10]: 16.7 µM | TGI [10]: 37.6 µM

O=C(Nc1cccnc1)c1ccc2ccc3ccc(C(=O)Nc4cccnc4)nc3c2n1
GI50 [1]: 0.0537 µM | GI50 [2]: 0.202 µM | TGI [2]: > 100 µM | GI50 [3]: 0.137 µM | TGI [3]: > 100 µM | GI50 [4]: > 100 µM | TGI [4]: > 100 µM | GI50 [5]: 0.231 µM | TGI [5]: > 100 µM | GI50 [6]: 0.135 µM | TGI [6]: > 100 µM | GI50 [7]: 0.132 µM | TGI [7]: > 100 µM | GI50 [8]: 0.206 µM | TGI [8]: > 100 µM | GI50 [9]: 0.37 µM | TGI [9]: > 100 µM | GI50 [10]: 0.0458 µM | TGI [10]: > 100 µM

C=C1C(=O)OC2CC3(C)CCCC(C)C3=CC12 (stereo not given)
TGI [1]: 13.7 µM | TGI [2]: 19.9 µM | TGI [3]: 5.28 µM | TGI [4]: 56.7 µM | TGI [5]: 37.3 µM | TGI [6]: 2.56 µM | TGI [7]: 2.59 µM | TGI [8]: 11.6 µM | TGI [9]: 20.2 µM | TGI [10]: 14.2 µM

COc1cc(-c2ccc(NC(=O)NC3CC3)c(OC)c2)ccc1NC(=O)NC1CC1
GI50 [1]: 1.51 µM | TGI [1]: 15.7 µM | GI50 [2]: > 68.5 µM | TGI [2]: > 100 µM | GI50 [3]: 5.69 µM | TGI [3]: > 100 µM | GI50 [4]: > 43.6 µM | TGI [4]: > 100 µM | GI50 [5]: 6.83 µM | TGI [5]: > 100 µM | GI50 [6]: 7.67 µM | TGI [6]: > 100 µM | GI50 [7]: 3.75 µM | TGI [7]: > 100 µM | GI50 [8]: 29.5 µM | TGI [8]: > 100 µM | GI50 [9]: > 100 µM | TGI [9]: > 100 µM | GI50 [10]: 5.81 µM | TGI [10]: > 100 µM

O=C1C(=O)N(c2cccc(C(F)(F)F)c2)C(=O)C(=O)C1c1nc2ccccc2s1
TGI [1]: > 100 µM | TGI [2]: > 100 µM | TGI [3]: > 100 µM | TGI [4]: > 100 µM | TGI [5]: > 53.8 µM | TGI [6]: > 100 µM | TGI [7]: 59.8 µM | TGI [8]: > 100 µM | TGI [9]: > 100 µM | TGI [10]: > 100 µM

CC(O)CN1c2ccccc2Sc2ccc(Cl)cc21 (stereo not given)
TGI [1]: > 10 µM | TGI [2]: > 10 µM | TGI [3]: > 10 µM | TGI [4]: > 10 µM | TGI [5]: > 10 µM | TGI [6]: > 10 µM | TGI [7]: > 10 µM | TGI [8]: > 10 µM | TGI [9]: > 10 µM | TGI [10]: > 10 µM

CCCCCCN(C)Cc1ccc(OCCOc2ccc(CN(C)CCCCCC)cc2)cc1
GI50 [1]: 1.35 µM | TGI [1]: 2.99 µM | GI50 [2]: 1.52 µM | TGI [2]: 3.42 µM | GI50 [3]: 1.4 µM | TGI [3]: 2.79 µM | GI50 [4]: 1.38 µM | TGI [4]: 3.16 µM | GI50 [5]: 1.41 µM | TGI [5]: 3.16 µM | GI50 [6]: 0.659 µM | TGI [6]: 2.19 µM | GI50 [7]: 1.91 µM | TGI [7]: 4.51 µM | GI50 [8]: 1.44 µM | TGI [8]: 2.8 µM | GI50 [9]: 1.17 µM | TGI [9]: 2.74 µM | GI50 [10]: 0.375 µM | TGI [10]: 1.53 µM
